Experimental data: patent US9957214B2, “Multifunctional radical quenchers” (ARIZONA BOARD OF REGENTS ON BEHALF OF ARIZONA STATE …, priority 2012, dated 2018)

Key:
[1] = test system: differentiated SH-SY5Y cells; experiment: Neuroprotection against Aβ 1-42 oligomer induced cytotoxicity (WST-1); assay type: cell-based, human; details: Aβ 1-42 oligomers 2.5 μM, 48 h
Protocol: FIG. 8. Effect of nitrogen-containing 1,4-benzoquinone 40 and geldanamycin on Aβ 1-42 induced neurotoxicity in differentiated SH-SY5Y cells.
The cytotoxic effect of Aβ 1-42 oligomers (2.5 μM) on differentiated SH-SY5Y cells was evaluated in presence and absence of the test compounds. Sequential treatment of the human SH-SY5Y neuroblastoma cell line with retinoic acid and brain-derived neurotrophic factor (BDNF) generates nearly pure populations of human neuron-like cells, thus providing a model for the study of neuronal differentiation and neuroprotection as previously described, with some modifications (Encinas et al. (2000) J. Neurochem. 75, 991-1003). […] The plates were incubated at 37° C. in an atmosphere having 95% humidity and 5% CO2 for 48 h and then cell viability was measured using a WST-1 Kit (Roche Diagnostics). […] Color intensity was measured with a 96-well plate at 450 nm using a SpectraMax M5 microplate reader (Molecular Devices, Sunnyvale, Calif.). Results are expressed as percentage of viable cells relative to untreated control after subtracting background. Data are expressed as means±S.E.M. (n=3).
Synthetic human Aβ 1-42 was purchased from AnaSpec (San Jose, Calif.). […] Aβ 1-42 peptide content was determined by the method of bicinchoninic acid assay (micro-BCA kit, Pierce) using BSA as reference.

[2] = test system: BT474 cell line and FRDA lymphocytes; experiment: Cytotoxicity assay (WST-1); assay type: cell-based, human; details: 48 h, varying concentrations
Protocol: FIG. 5. Effect of compound 40 and geldanamycin on cell viability was compared to vehicle (DMSO) after treatment with varying concentrations for 48 h in BT474 cell line and FRDA lymphocytes, respectively. Each measurement is an average of three independent experiments run in quartet.
[…] geldanamycin were tested for their cytotoxicity in human breast cancer cell line BT474 and FRDA lymphocytes using the vital mitochondrial function assay WST-1 Kit (Roche Diagnostics). BT474 cells (2000 cell/well) and FRDA lymphocytes (5000 cell/well) (100 μl) were seeded in 96-well plates and incubated for 48 h. Compound 40 or geldanamycin at varying concentrations were added and the plates were returned to the incubator for 48 h. Cell viability was determined using a WST-1 Kit (Roche Diagnostics) following the manufacturer's instructions. WST-1 reagent (10 μL) was added to each well, containing 200 μL media and further incubation for 2 h (BT474) and 4 h (FRDA lymphocytes). Color intensity was measured at 450 nm using a SpectraMax M5 microplate reader (Molecular Devices, Sunnyvale, Calif., USA). Results are expressed as percentage of viable cells relative to untreated control after subtracting background. Data are expressed as means±S.E.M. (n=3).

SMILES: COC1=C2CCCCCCCCCCCCCCCNC(=CC1=O)C2=O [Compound 40]
- Effect on Aβ 1-42 induced cytotoxicity (in words) [1]: decreased Aβ 1-42 induced cytotoxicity in a concentration dependent manner
- Cytotoxicity (in words) [2]: no cytotoxicity
